Reference: patent US5800809A, “Non-crosslinked acrylic polymers and non-crosslinked anion exchange resins” (priority 1992, dated 1998)

How the values were obtained:
[1] = set-up: species or system CD-1 mouse; conditions: mouse, in vivo
Protocol: (3) Micronucleus test on mice.
test on mice HBS-107 was given orally at a dosage of
was prepared after 24, 48 and 72 hours

[2] = rabbit, in vivo
[3] = rat, in vivo

polyacryloyloxyethyl-N,N-dimethylbenzyl ammonium salt [Example 1]
induction of micronucleus formation [1]: No induction | irritation (in words) [2]: not strong | urine volume, Na^+ and Cl^- [3]: Significant reduction
